# Test results from paper PMC5340622 (Cancer discovery, 2016).
# pIC50: −log10 of the molar value.
# Assays:
# [1] = test system: WT and mutant cell lines (MCF7); test: Proliferation of WT and mutant ER MCF7 cell lines with other SERDs; type: cell-based; settings: WT and all mutant cell lines
# MCF7 WT cells = test: Proliferation assay; type: cell-based; settings: Homo sapiens, MCF7, read-out: IC50, growth inhibition
# in vivo = settings: mouse, serum, other: AZD9496 oral (gavage); fulvestrant subcutaneous
# [2] = test system: MCF7 inducible HA-ER S463P tumors; test: MCF7 inducible HA-ER S463P xenograft; type: in vivo, mice; settings: fulvestrant 200mg/kg twice weekly s.c.
# [3] = test system: MCF7 inducible HA-ER WT tumors; test: MCF7 inducible HA-ER WT xenograft; type: in vivo, mice; settings: fulvestrant 200mg/kg twice weekly s.c.
# S463P mutant ER = test: ERE-luciferase inhibition, doxycycline-induced S463P ER in MCF7 cells; type: cell-based; settings: MCF7, regular medium
# E380Q mutant ER = test: ERE-luciferase inhibition, doxycycline-induced E380Q ER in MCF7 cells; type: cell-based; settings: MCF7, regular medium
# [4] = test system: MCF7 inducible HA-ER E380Q tumors; test: MCF7 inducible HA-ER E380Q xenograft; type: in vivo, mice; settings: fulvestrant 200mg/kg twice weekly s.c.
SMILES,inhibition of cell proliferation [1],pIC50 (MCF7 WT cells),AUC (in vivo),Cmax (in vivo),tumor growth inhibition [2],tumor growth inhibition [3],fold higher IC99 as compared to WT (S463P mutant ER),fold higher IC99 as compared to WT (E380Q mutant ER),tumor growth inhibition [4]
"C[C@@H]1Cc2c([nH]c3ccccc23)[C@@H](c2c(F)cc(/C=C/C(=O)O)cc2F)N1CC(C)(C)F [AZD9496, (E)-3-(3,5-Difluoro-4-((1R,3R)-2-(2-fluoro-2-methylpropyl)-3-methyl-2,3,4,9-tetra hydro-1H–pyrido[3,4-b]indol-1-yl)phenyl)acrylic Acid]",capable of inhibiting cell proliferation by all mutants,9.40,218 µM·h,59 µM,–,–,–,–,–
C[C@]12CC[C@@H]3c4ccc(O)cc4C[C@@H](CCCCCCCCC[S+]([O-])CCCC(F)(F)C(F)(F)F)[C@H]3[C@@H]1CC[C@@H]2O (some centres unmarked) [fulvestrant],–,9.40,5.29 µM·h,0.65 µM,fully inhibited the growth,fully inhibited the growth,2 fold,2 fold,fully inhibited the growth
C[C@]12C[C@H](c3ccc(OCCCCCS(=O)(=O)CCCC(F)(F)C(F)(F)F)cc3)[C@@H]3c4ccc(O)cc4CC[C@H]3[C@@H]1CC[C@@H]2O [RU58668],capable of inhibiting cell proliferation by all mutants,–,–,–,–,–,–,–,–
CC/C(=C(/c1ccc(/C=C/C(=O)O)cc1)c1ccc2[nH]ncc2c1)c1ccc(F)cc1Cl [GDC-0810],capable of inhibiting cell proliferation by all mutants,–,–,–,–,–,–,–,–
